According to publication PMC11062922 (Nature Chemical Biology, 2023):

Key:
FLAD1 = test: Kinobeads competition binding: FLAD1; design: species or system human; conditions: target FLAD1;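 note: selectivity score: engagement of this protein divided by summed engagement of all targets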
HSP90B1 = biological target: T1, HSP90B1 (Homo sapiens, UniProt P14625); test: Kinobeads competition binding: HSP90B1; conditions: target HSP90B1;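 note: share of total target engagement due to this protein at one drug concentration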
T1 construct: endogenous in cells

PIK3CG = biological target: T2, PIK3CG (Homo sapiens, UniProt P48736); test: Kinobeads competition binding: PIK3CG; conditions: target PIK3CG;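 note: selectivity score: engagement of this protein divided by summed engagement of all targets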
T2 construct: endogenous in cells
From the text: Supplement 41589_2023_1459_MOESM4_ESM.xlsx, sheet "CATDS matrix" | column: PIK3CG

EPHA2 = biological target: T3, EPHA2 (Homo sapiens, UniProt P29317); test: Kinobeads competition binding: EPHA2; conditions: target EPHA2
T3 construct: endogenous in cells
From the text: Supplement 41589_2023_1459_MOESM4_ESM.xlsx, sheet "CATDS matrix" | column: EPHA2

LATS1 = biological target: T4, LATS1 (Homo sapiens, UniProt O95835); test: Kinobeads competition binding: LATS1; conditions: target LATS1
T4 construct: endogenous in cells
T4 sequence (O95835 1-1130): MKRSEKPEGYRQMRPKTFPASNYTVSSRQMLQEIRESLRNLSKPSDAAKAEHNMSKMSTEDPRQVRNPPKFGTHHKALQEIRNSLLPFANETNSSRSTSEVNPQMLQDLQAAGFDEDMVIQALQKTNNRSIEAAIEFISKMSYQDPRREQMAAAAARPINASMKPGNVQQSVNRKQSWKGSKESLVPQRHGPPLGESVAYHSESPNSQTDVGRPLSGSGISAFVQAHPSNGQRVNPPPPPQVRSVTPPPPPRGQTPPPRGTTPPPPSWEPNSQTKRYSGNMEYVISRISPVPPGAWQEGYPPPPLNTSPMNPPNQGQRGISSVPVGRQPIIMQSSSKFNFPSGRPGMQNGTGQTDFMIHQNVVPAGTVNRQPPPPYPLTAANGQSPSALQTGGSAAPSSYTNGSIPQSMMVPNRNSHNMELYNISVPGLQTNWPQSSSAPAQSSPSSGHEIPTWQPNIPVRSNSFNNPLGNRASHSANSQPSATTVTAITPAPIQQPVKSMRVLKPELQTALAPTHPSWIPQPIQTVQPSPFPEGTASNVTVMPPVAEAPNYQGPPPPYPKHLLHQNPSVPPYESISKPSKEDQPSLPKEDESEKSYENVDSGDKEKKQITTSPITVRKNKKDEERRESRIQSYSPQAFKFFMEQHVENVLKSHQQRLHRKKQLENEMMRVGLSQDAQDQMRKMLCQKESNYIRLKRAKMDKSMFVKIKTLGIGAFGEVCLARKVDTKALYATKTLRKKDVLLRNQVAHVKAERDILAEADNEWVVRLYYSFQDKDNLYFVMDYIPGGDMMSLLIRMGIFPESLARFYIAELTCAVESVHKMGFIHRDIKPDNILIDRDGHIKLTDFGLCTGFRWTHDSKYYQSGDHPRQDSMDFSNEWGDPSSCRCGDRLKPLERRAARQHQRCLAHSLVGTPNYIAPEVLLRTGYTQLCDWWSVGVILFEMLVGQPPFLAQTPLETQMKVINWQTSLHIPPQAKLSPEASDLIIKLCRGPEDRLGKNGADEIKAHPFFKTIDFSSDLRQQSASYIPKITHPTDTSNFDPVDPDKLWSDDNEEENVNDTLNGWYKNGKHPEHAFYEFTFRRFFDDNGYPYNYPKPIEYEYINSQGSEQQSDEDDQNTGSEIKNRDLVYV
From the text: Supplement 41589_2023_1459_MOESM4_ESM.xlsx, sheet "CATDS matrix" | column: LATS1

COX5A = test: Kinobeads competition binding: COX5A; design: species or system human; conditions: target COX5A;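 note: share of total target engagement due to this protein at one drug concentration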
EIF2AK1 = test: Kinobeads competition binding: EIF2AK1; design: species or system human; conditions: target EIF2AK1;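 note: share of total target engagement due to this protein at one drug concentration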
PIM1 = biological target: T5, PIM1 (Homo sapiens, UniProt P11309); test: Kinobeads competition binding: PIM1; conditions: target PIM1
T5 construct: a mixture of lysates from five cancer cell lines; endogenous in cells

AKT1 = biological target: T6, AKT1 (Homo sapiens, UniProt P31749); test: Kinobeads competition binding: AKT1; conditions: target AKT1
T6 construct: endogenous in cells
From the text: Supplement 41589_2023_1459_MOESM4_ESM.xlsx, sheet "CATDS matrix" | column: AKT1

AKT2 = biological target: T7, AKT2 (Homo sapiens, UniProt P31751); test: Kinobeads competition binding: AKT2; conditions: target AKT2
T7 construct: endogenous in cells

MAP4K3 = test: Kinobeads competition binding: MAP4K3; design: species or system human; conditions: target MAP4K3
OPA1 = test: Kinobeads competition binding: OPA1; design: species or system human; conditions: target OPA1;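 note: target engagement share of this target among all targets at its Kdapp concentration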
MAPK1 = test: Kinobeads competition binding: MAPK1; design: species or system human; conditions: target MAPK1
MDN1 = test: Kinobeads competition binding: MDN1; design: species or system human; conditions: target MDN1
CDK2 = biological target: T8, CDK2 (Homo sapiens, UniProt P24941); test: Kinobeads competition binding: CDK2; conditions: target CDK2
T8 construct: endogenous in cells

| SMILES | CATDS (FLAD1) | CATDS (HSP90B1) | CATDS (PIK3CG) | CATDS (EPHA2) | CATDS (LATS1) | CATDS (COX5A) | CATDS (EIF2AK1) | CATDS (PIM1) | CATDS (AKT1) | CATDS (AKT2) | CATDS (MAP4K3) | CATDS (OPA1) | CATDS (MAPK1) | CATDS (MDN1) | CATDS (CDK2) |
| --- | --- | --- | --- | --- | --- | --- | --- | --- | --- | --- | --- | --- | --- | --- | --- |
| CCN1CCN(Cc2ccc(Nc3ncc(F)c(-c4cc(F)c5nc(C)n(C(C)C)c5c4)n3)nc2)CC1 [Abemaciclib] | 0 | 0 | 0 | 0 | 0 | 0 | 0 | 0.03255 | 0 | 0 | 0 | 0 | 0 | 0 | – |
| CN(C)C/C=C/C(=O)Nc1cc2c(Nc3ccc(F)c(Cl)c3)ncnc2cc1O[C@H]1CCOC1 [Afatinib] | 0 | 0 | 0 | 0 | 0 | 0 | – | – | 0 | – | – | 0 | – | 0 | 0 |
| CCc1cc2c(cc1N1CCC(N3CCOCC3)CC1)C(C)(C)c1[nH]c3cc(C#N)ccc3c1C2=O [Alectinib] | 0 | 0 | 0 | 0 | 0 | 0 | 0 | 0 | 0 | 0 | 0 | 0 | 0 | 0 | 0 |
| Nc1ncnc2[nH]c(-c3ccccc3)nc12 [AH5015_KCGS] | 0 | 0 | 0 | 0 | 0 | 0 | 0 | 0 | 0 | 0 | 0 | 0 | 0 | 0 | 0 |
| N#CC1(c2ccc(NC(=O)c3cccnc3NCc3ccncc3)cc2)CCCC1 [Apatinib] | 0 | 0 | 0 | 0 | 0 | 0 | 0 | 0 | 0 | 0 | 0 | 0 | 0 | 0 | 0 |
